Experimental data reported in patent US6803378B2, “HIV integrase inhibitors” (Bristol-Myers Squibb Company, priority 2000, dated 2004).

molecular target: T1, HIV Integrase (Human immunodeficiency virus type 1 group M subtype B, UniProt P04585); experiment: In vitro activity against integrase, Method B (SPA assay); type: biochemical; settings: read-out: Percent inhibition of HIV Integrase at 70 uM
T1 construct: 0.26 ng of recombinant integrase was then incubated with the beads
Procedure: (§1) The in vitro activities, against integrase, of compounds of the present invention were measured by one of the following three methods.
(§2) In Method B, the in vitro activity against integrase was measured by binding, for each reaction, 5 pmole of biotin labeled substrate DNA to 100 ug of Streptavidin coated PVT SPA beads (Amersham Pharmacia Biotech). 0.26 ng of recombinant integrase was then incubated with the beads for 90 min at 37° C. Unbound enzyme was removed by washing the complex followed by addition of inhibitors and 0.1 fmol of P33 labeled target DNA. Reaction was stopped by adding EDTA to a final concentration of 10 mM. Samples were counted in TopCountNXT (Packard) and the CPM was used as a measure of integration. Reaction condition was as described in A. Engelman and R. Craigie, J. Virol. 69, 5908-5911 (1995). The sequences of substrate and target DNA were described in Nucleic Acid Research 22, 1121-1122 (1994).

SMILES | inhibition at 70 µM
Cc1ccc(CN(C(=O)/C=C(\O)C(=O)O)c2ccc(F)cc2)cc1 [Compound 73, 3-[(4-Fluoro-phenyl)-(4-methyl-benzyl)-carbamoyl]-2-hydroxy-acrylic acid] | 99%
CN(Cc1ccccc1Cc1ccc(F)cc1)C(=O)/C=C(\O)C(=O)O [Compound 81, 3-{[2-(4-Fluoro-benzyl)-benzyl]-methyl-carbamoyl}-2-hydroxy-acrylic acid] | 95%
CN(Cc1cccc(-c2ccc(F)cc2)c1)C(=O)/C=C(\O)C(=O)O [Compound 63, 3-[(4′-Fluoro-biphenyl-3-ylmethyl)-methyl-carbamoyl]-2-hydroxy-acrylic acid] | 98%
O=C(O)/C(O)=C/C(=O)N(Cc1ccc2ccccc2c1)c1ccc(Cl)cc1 [Compound 55, 3-[(4-Chloro-phenyl)-naphthalen-2-ylmethyl-carbamoyl]-2-hydroxy-acrylic acid] | 99%
COc1cc(CN(C)C(=O)/C=C(\O)C(=O)O)ccc1F [Compound 60, 3-[(4-Fluoro-3-methoxy-benzyl)-methyl-carbamoyl]-2-hydroxy-acrylic acid] | 99%
Cc1ccc(CNC(=O)/C=C(\O)C(=O)O)cc1F [Compound 91, 3-(3-Fluoro-4-methyl-benzylcarbamoyl)-2-hydroxy-acrylic acid] | 99%
CN(CCC(c1ccc(F)cc1)c1ccc(F)cc1)C(=O)/C=C(\O)C(=O)O [Compound 80, 3-{[3,3-Bis-(4-fluoro-phenyl)-propyl]-methyl-carbamoyl}-2-hydroxy-acrylic acid] | 90%
O=C(O)/C(O)=C/C(=O)N(Cc1ccc(F)cc1)c1ccc(Cl)cc1 [Compound 70, 3-[(4-Chloro-phenyl)-(4-fluoro-benzyl)-carbamoyl]-2-hydroxy-acrylic acid] | 92%
O=C(O)/C(O)=C/C(=O)N(Cc1ccccc1)Cc1ccccc1 [Compound 14, 3-Dibenzylcarbamoyl-2-hydroxy-acrylic acid] | 94.5%
O=C(O)/C(O)=C/C(=O)N(Cc1ccc(Cl)cc1)Cc1ccc(Cl)cc1 [Compound 57, 3-[Bis-(4-chloro-benzyl)-carbamoyl]-2-hydroxy-acrylic acid] | 99%
O=C(O)/C(O)=C/C(=O)N(Cc1ccc(F)cc1)Cc1ccco1 [Compound 74, 3-[(4-Fluoro-benzyl)-furan-2-ylmethyl-carbamoyl]-2-hydroxy-acrylic acid] | 98%
O=C(O)/C(O)=C/C(=O)N(Cc1ccc(F)cc1)Cc1ccc2ccccc2c1 [Compound 53, 3-[(4-Fluoro-benzyl)-naphthalen-2-ylmethyl-carbamoyl]-2-hydroxy-acrylic acid] | 99%
O=C(/C=C(\O)C(=O)O)NC(c1ccc(Cl)cc1)c1ccc(Cl)cc1 [Compound 92, 3-{[Bis-(4-chloro-phenyl)-methyl]-carbamoyl}-2-hydroxy-acrylic acid] | 94%
CN(Cc1ccc(F)c(F)c1)C(=O)/C=C(\O)C(=O)O [Compound 59, 3-[(3,4-Difluoro-benzyl)-methyl-carbamoyl]-2-hydroxy-acrylic acid] | 98%
O=C(O)/C(O)=C/C(=O)N(Cc1ccc(F)cc1)c1ccc(F)cc1 [Compound 72, 3-[(4-Fluoro-benzyl)-(4-fluoro-phenyl)-carbamoyl]-2-hydroxy-acrylic acid] | 99%
CN(Cc1cccc(Oc2ccccc2)c1)C(=O)/C=C(\O)C(=O)O [Compound 64, 2-Hydroxy-3-[methyl-(3-phenoxy-benzyl)-carbamoyl]-acrylic acid] | 95%
CN(Cc1ccc(F)c(Cl)c1)C(=O)/C=C(\O)C(=O)O [Compound 58, 3-[(3-Chloro-4-fluoro-benzyl)-methyl-carbamoyl]-2-hydroxy-acrylic acid] | 99%
CN(Cc1cccc(Cl)c1)C(=O)/C=C(\O)C(=O)O [Compound 62, 3-[(3-Chloro-benzyl)-methyl-carbamoyl]-2-hydroxy-acrylic acid] | 99%
O=C(CCCCCNC(=O)/C(O)=C/C(=O)N(Cc1ccc(F)cc1)Cc1ccc(F)cc1)NS(=O)(=O)c1ccccc1 [Compound 146, 2-Hydroxy-but-2-enedioic acid 1-[(6-benzenesulfonylamino-6-oxo-hexyl)-amide] 4-[bis-(4-fluoro-benzyl)-amide]] | 98%
Cc1cc(CN(C)C(=O)/C=C(\O)C(=O)O)ccc1F [Compound 61, 3-[(4-Fluoro-3-methyl-benzyl)-methyl-carbamoyl]-2-hydroxy-acrylic acid] | 99%
CN(Cc1ccccc1Cc1ccccc1)C(=O)/C=C(\O)C(=O)O [Compound 84, 3-[(2-Benzyl-benzyl)-methyl-carbamoyl]-2-hydroxy-acrylic acid] | 88%
COc1ccc(CN(Cc2ccc(F)cc2)C(=O)/C=C(\O)C(=O)O)cc1Cl [Compound 76, 3-[(3-Chloro-4-methoxy-benzyl)-(4-fluoro-benzyl)-carbamoyl]-2-hydroxy-acrylic acid] | 99%
CN(Cc1ccc2ccccc2c1)C(=O)/C=C(\O)C(=O)O [Compound 54, 2-Hydroxy-3-(methyl-naphthalen-2-ylmethyl-carbamoyl)-acrylic acid] | 99%
CN(Cc1ccc(F)cc1)C(=O)/C=C(\O)C(=O)O [Compound 16, 3-[(4-Fluoro-benzyl)-methyl-carbamoyl]-2-hydroxy-acrylic acid] | 97%
O=C(O)/C(O)=C/C(=O)N(CCCc1ccccc1)c1ccc(Cl)cc1 [Compound 56, 3-[(4-Chloro-phenyl)-(3-phenyl-propyl)-carbamoyl]-2-hydroxy-acrylic acid] | 88%
Cc1ccc(CN(C(=O)/C=C(\O)C(=O)O)c2ccc(Cl)cc2)cc1 [Compound 71, 3-[(4-Chloro-phenyl)-(4-methyl-benzyl)-carbamoyl]-2-hydroxy-acrylic acid] | 99%

molecular target: T1, HIV Integrase; experiment: In vitro activity against integrase, Method C (electroluminescence, ECL assay); type: biochemical; settings: read-out: Percent inhibition of HIV Integrase at 70 uM
Procedure: as §1, §2
Method C (Electroluminesence Assay):
The ECL assay of Method C is essentially the same as the SPA assay of Method B, except that 0.5 μg of Streptavidin coated magnetic beads and 0.5 pmol Ru labeled target DNA were used for each reaction instead of SPA beads and P33 labeled DNA. The samples were read in a M8 analyzer (IGEN International, Inc).

SMILES | inhibition at 70 µM
CN(Cc1ccco1)C(=O)/C=C(\O)C(=O)O [Compound 75, 3-(Furan-2-ylmethyl-methyl-carbamoyl)-2-hydroxy-acrylic acid] | 91%
O=C(O)/C(O)=C/C(=O)N(CCCc1ccc(-c2ccccc2)cc1)Cc1ccc(F)cc1 [Compound 85, 3-[(3-Biphenyl-4-yl-propyl)-(4-fluoro-benzyl)-carbamoyl]-2-hydroxy-acrylic acid] | 94%
CNC(=O)c1cccc(C(c2ccc(F)cc2)N(C)C(=O)/C=C(\O)C(=O)O)c1 (stereo not drawn) [Compound 79, 3-{[(4-Fluoro-phenyl)-(3-methylcarbamoyl-phenyl)-methyl]-methyl-carbamoyl}-2-hydroxy-acrylic acid] | 90%
CN(CCCc1ccc(F)cc1)C(=O)/C=C(\O)C(=O)O [Compound 46, 3-{[3-(4-Fluoro-phenyl)-propyl]-methyl-carbamoyl}-2-hydroxy-acrylic acid] | 99%
O=C(O)/C(O)=C/C(=O)N(Cc1ccc(F)cc1)CC1CC1c1ccccc1 (stereo not drawn) [Compound 52, 3-[(4-Fluoro-benzyl)-(2-phenyl-cyclopropylmethyl)-carbamoyl]-2-hydroxy-acrylic acid] | 99%
CN(Cc1ccc(Cl)cc1)C(=O)/C=C(\O)C(=O)O [Compound 45, 3-[(4-Chloro-benzyl)-methyl-carbamoyl]-2-hydroxy-acrylic acid] | 99%
O=C(O)/C(O)=C/C(=O)N(CCOc1ccccc1)Cc1ccc(F)cc1 [Compound 49, 3-[(4-Fluoro-benzyl)-(2-phenoxy-ethyl)-carbamoyl]-2-hydroxy-acrylic acid] | 99%
O=C(CCCCCNC(=O)/C(O)=C/C(=O)N(CCCc1ccccc1Cl)Cc1ccc(F)cc1)NS(=O)(=O)c1ccccc1 [Compound 147, 2-Hydroxy-but-2-enedioic acid 1-[(6-benzenesulfonylamino-6-oxo-hexyl)-amide] 4-[[3-(2-chloro-phenyl)-propyl]-(4-fluoro-benzyl)-amide]] | 98%
O=C(O)/C(O)=C/C(=O)N(CCCc1ccccc1F)Cc1ccc(F)cc1 [Compound 51, 3-{(4-Fluoro-benzyl)-[3-(2-fluoro-phenyl)-propyl]-carbamoyl}-2-hydroxy-acrylic acid] | 100%
CN(C(=O)/C=C(\O)C(=O)O)C(Cc1ccc(F)cc1)c1ccc(F)cc1 (stereo not drawn) [Compound 78, 3-{[1,2-Bis-(4-fluoro-phenyl)-ethyl]-methyl-carbamoyl}-2-hydroxy-acrylic acid] | 75%
CN(Cc1ccc(F)c(Br)c1)C(=O)C=C(O)C(=O)O [Compound 48, 3-[(3-Bromo-4-fluoro-benzyl)-methyl-carbamoyl]-2-hydroxy-acrylic acid] | 99%
O=C(O)/C(O)=C/C(=O)N(CCc1ccncc1)Cc1ccc(F)cc1 [Compound 86, 3-[(4-Fluoro-benzyl)-(2-pyridin-4-yl-ethyl)-carbamoyl]-2-hydroxy-acrylic acid] | 97%
CCCNC(=O)/C(O)=C/C(=O)N(Cc1ccc(F)cc1)Cc1ccc(F)cc1 [Compound 144, 2-Hydroxy-but-2-enedioic acid 4-[bis-(4-fluoro-benzyl)-amide] 1-propylamide] | 83%
